Assay [1] relates to Thiovir™ resistant HIVLAI, selection 1 (L214F, R172K, Q174R). As to the kind of experiment: IC50 by MAGI assay on selected resistant virus. In kind it is cell-based, HIV-1. The conditions noted are these: for Susceptibility Index (IC50 Resistant Virus/IC50 Purent Virus): Drug Resistant Virus: Thiovir ™ (Selection # 1), MAGI assay. As for the experimental part:
(§1) Thiovir™ and foscarnet resistant viruses were selected by in vitro passage of HIVLAI on H9 cells in the presence of escalating concentrations of drug. Resistant virus was evaluated for phenotypic changes by IC50 determination using the MAGI assay. Furthermore, the viral DNA was sequenced to determine genotypic variations (Table 4). Two independent 13 to 15 round selections were performed.

The test system of assay [2] is Thiovir™ resistant HIVLAI, selection 2 (L214F, M184I). As to the kind of experiment: IC50 by MAGI assay on selected resistant virus. It counts as cell-based, HIV-1. The settings on record: for Susceptibility Index (IC50 Resistant Virus/IC50 Purent Virus): Drug Resistant Virus: Thiovir ™ (Selection # 2), MAGI assay. The procedure:
as §1

Assay [3] relates to Foscarnet resistant HIVLAI, selection 1 (L214F, R172K). As to the kind of experiment: IC50 by MAGI assay on selected resistant virus. In kind it is cell-based, HIV-1. The conditions noted are these: Drug Resistant Virus: Foscarnet (Selection # 1). The procedure:
as §1

Assay [4] has as its system Foscarnet resistant HIVLAI, selection 2 (L214F, M184I). As to the kind of experiment: IC50 by MAGI assay on selected resistant virus. It counts as cell-based, HIV-1. The settings on record: Drug Resistant Virus: Foscarnet (Selection # 2). As for the experimental part: as §1
A further assay deals with HIV in H9 T-cells. In kind it is cell-based. The settings on record: p24 assay; combined with tenofovir at a ratio of 1:1.
Assay [5] deals with panel of NRTI and NNRTI resistant HIV-1. The experiment in a line: PhenoSense reporter assay, panel of ten resistant viruses. It counts as cell-based. The conditions noted are these: FIG. 2; for susceptibility of the resistant virus panel: all viruses of the panel. The source says: Antiviral activity also can be quantitatively measured using a PhenoSense™ assay. A PhenoSense™ assay uses nucleic acid amplification to derive HIV protease and reverse transcriptase nucleic acid sequences from plasma. The patient-derived sequences are incorporated into a viral vector to construct a resistance test vector (RTV). The viral vector also contains an indicator or reporter gene (e.g., green fluorescent protein, luciferase, beta galactosidase, etc.) inserted within a deleted portion of the HIV envelope gene. The reporter gene is under the control of a strong promoter (e.g., a CMV promoter) in the RTV.
The PhenoSense™ assay is performed by introducing the RTV nucleic acid sequence into host cells, collecting virus particles after transfection, and using the virus particles to infect target cells. Drug susceptibility is measured by comparing reporter gene activity produced in the presence and absence of drugs. The presence of drug can be one or more different concentrations, for example, several titrated concentrations.
The data are analyzed by plotting the percent inhibition of viral replication, as measured by reporter gene activity, against the log10 concentration of drug for the patient virus (in the RTV) and a drug sensitive reference virus. The resulting drug susceptibility curve is used to calculate the concentration of drug required to inhibit viral replication by 50% (IC50). A shift in the patient inhibition curve toward a higher drug concentration as compared to the curve of the drug-sensitive reference virus is interpreted as reduced drug susceptibility. A shift in the patient inhibition curve toward a lower drug concentration as compared to the curve of the drug-sensitive reference virus is interpreted as increased drug susceptibility. PhenoSense™ can be conducted by a commercial service provider, for example, Monogram Biosciences, South San Francisco, Calif.
All Phenosense™ assays were performed at Virologic, Inc as described (Petropoulos, et al. (2000) Antimicrob Agents Chemother 44:920). Briefly, the envelope gene is deleted from wild type HIV-1 and luciferase reporter inserted under control of a strong CMV promoter. Viral stocks are produced by co-transfection of producer cells with the recombinant viral DNA and a vector that expresses envelope protein from an amphotropic murine leukemia virus. Pseudotyped viral particles are replication defective and only undergo one round of infection. Expression of the luciferase gene in target cells is dependent on a single round of infection.
The activity of Thiovir™ was evaluated against viruses that are resistant to common NRTI and NNRTI drugs using the Phenosense™ reporter system (Petropoulos, supra). […]
A general note: Reporter assays use an easily measured gene product as a stand-in for the process of interest.

Assay [6] concerns Thiovir™ and foscarnet selected virus. The experiment in a line: Susceptibility of selected viruses. It counts as cell-based, HIV-1. The settings on record: both Thiovir™ and foscarnet selected virus.
Procedure: Wild type and antiviral drug resistant HIV were tested for sensitivity to anti-viral drugs using either MAGI assay or Phenosense™ assay. The 50% inhibitory concentration, IC50, was then determined from a plot of percent inhibition vs. log10 drug concentration.
MAGI cells were seeded at approximately 5×10^4 cells per well in a 12 well plate in DMEM with 10% fetal calf serum and incubated overnight at 37° C. in 5% CO2. Drug was added at various concentrations and incubated for approximately 30 to 60 minutes. Cells were infected with either HIV-1 HXB2 or HIV-1IIIB in the presence of either 4 microg/ml polybrene or 60 microg/ml dextran. Infection was continued for 48 hours and cells fixed using 0.05% glutaraldehyde. […] Blue nuclei were counted under a microscope at 100× magnification.
To select for drug resistant variants, 1×10^6H9 cells were pretreated for two hours at three concentrations of AZT (0.5, 1 and 2 μM), Nevirapine (0.5, 1 and 2 μM), foscarnet (25 and 50 μM) and Thiovir™ (25 and 50 μM) prior to infection at MOI of 0.1 of HIVIIIB or HIVLAI. […] Virus was passaged at increasing drug concentration and monitored for increase in IC50. […]
Thiovir™ and foscarnet resistant viruses were selected by in vitro passage of HIVLAI on H9 cells in the presence of escalating concentrations of drug. Resistant virus was evaluated for phenotypic changes by IC50 determination using the MAGI assay. […]

Procedure for HIV in H9 T-cells: Reduction in viral titer also can be measured using an ELISA capture assay with antibodies specific for viral capsid proteins (e.g., HIV-1 p24).
H9 T-cells were pretreated with polybrene at 4 μg/ml and drug at indicated concentrations in RPMI plus 10% fetal calf serum for 30 minutes prior to adsorption of virus at multiplicities of infection (MOI) 0.1 for 2 hours at 37° C., 5% CO2. Cells were washed 3 times with PBS and resuspended in fresh media plus drug. Incubation at 37° C., 5% CO2 was continued for 4-6 days and cells centrifuged at 1200 rpm. Supernatants were removed and p24 detected by quantitative antigen capture kit (Zeptometrix, Buffalo, N.Y.).

Take `Cc1cn([C@H]2C[C@H](N=[N+]=[N-])[C@@H](CO)O2)c(=O)[nH]c1=O` [Zidovudine, Azidothymidine]: the “Susceptibility Index (IC50 Resistant Virus/IC50 Purent Virus)” value (shortened to “Susceptibility Index”) in assay [1] turned out to be 0.22; in assay [2] it was 0.35; in assay [3], 0.87; in assay [4], 0.58.

In the case of `O=C(O)P(O)(O)=S` [Thiovir™, thiophosphonoformic acid], the “drug interaction in words, combined with tenofovir” value in the assay with HIV in H9 T-cells is on record as “synergy”. The “Susceptibility Index” value in assay [1] is 4.8; in assay [2] it was 113; in assay [3], 6.3; in assay [4], 100. Moreover, the results for the “resistance of selected virus” value in assay [1] (first Thiovir™ selected resistant virus) and in assay [2] (second Thiovir™ selected resistant virus) were 4.8 fold and 85 fold, respectively. In addition, the “susceptibility of the resistant virus panel” value in assay [5] is “sensitive”. Also, the “susceptibility of the majority of the panel viruses” value in assay [5] is reported as “hypersensitive”.

For the compound `Cc1ccnc2c1NC(=O)c1cccnc1N2C1CC1` [Nevirapine], the “Susceptibility Index” value in assay [1] came to 1.05; in assay [3] it was 1.06. For the same compound, the “susceptibility of selected virus in words” value in assay [6] was “sensitive”.

Consider `O=C(O)P(=O)(O)O` [Foscarnet, phosphonoformic acid], for which, in the assay with HIV in H9 T-cells, the “drug interaction in words, combined with tenofovir” value is “additive to antagonistic”. Besides, the “Susceptibility Index” value in assay [1] was 4.8; in assay [2], 85; in assay [3], 4.1; in assay [4] it was 103. Besides, in assay [5], the “susceptibility of the resistant virus panel” value is “sensitive”. Further, the “susceptibility of the majority of the panel viruses” value in assay [5] is “hypersensitive”.

For the origin of these results see patent US20090291908A1, “Use of thiophoshonoformic acid and nrtis to treat viral infections” (priority 2005, published 2009).
